Test results: publication PMC10120535, “Identification of new 4-(6-oxopyridazin-1-yl)benzenesulfonamides as multi-target anti-inflammatory agents targeting carbonic anhydrase, COX-2 and 5-LOX enzymes: synthesis, biological evaluations and modelling insights” (Journal of Enzyme Inhibition and Medicinal Chemistry, 2023)

How the values were obtained:
[1] = molecular target: T1, COX-1 (Ovis aries, UniProt P05979); assay: COX Inhibitor screening ELISA assay kit, COX-1
T1 sequence (P05979 25-600): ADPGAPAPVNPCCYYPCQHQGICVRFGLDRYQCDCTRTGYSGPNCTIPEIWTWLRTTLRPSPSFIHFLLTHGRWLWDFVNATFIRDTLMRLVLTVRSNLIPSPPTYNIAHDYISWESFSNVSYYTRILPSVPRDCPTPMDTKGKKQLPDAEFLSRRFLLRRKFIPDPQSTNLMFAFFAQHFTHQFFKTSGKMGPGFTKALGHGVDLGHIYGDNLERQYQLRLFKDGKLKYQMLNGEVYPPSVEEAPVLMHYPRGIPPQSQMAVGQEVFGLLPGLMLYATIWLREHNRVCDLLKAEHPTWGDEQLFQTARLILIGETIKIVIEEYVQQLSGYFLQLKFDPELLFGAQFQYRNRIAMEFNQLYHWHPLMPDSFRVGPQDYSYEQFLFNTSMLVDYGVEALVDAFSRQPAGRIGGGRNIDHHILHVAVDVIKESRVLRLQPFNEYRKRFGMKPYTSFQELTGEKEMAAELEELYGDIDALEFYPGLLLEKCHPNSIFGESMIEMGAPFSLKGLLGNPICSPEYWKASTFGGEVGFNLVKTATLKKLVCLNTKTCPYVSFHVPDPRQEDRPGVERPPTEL

[2] = system: mice; assay: acetic acid writhing test (analgesic activity); type: in vivo; details: for Number of writhing (20 min) (Mean ± SD): n = 5, control 40 ± 2.9
From the text: (§1) The experimental procedures adopted to perform the acetic acid-induced writhing assay for the analgesic activities,[45] Paw edoema assay for the anti-inflammatory activities,[46] as well as the acute ulcerogenic test[47] have been carried out as described previously.

[3] = system: 5-LOX; assay: LOX inhibitory screening assay kit; type: biochemical; details: mean from 3 different assays
[4] = system: rat paw edoema; assay: carrageen-induced rat paw edoema assay (anti-inflammatory activity); type: in vivo; design: Anti-inflammatory activity (% inhibition of edoema) 3 h: concentration or dose not given beside the values; details: for FIF% change in paw height (Mean ± SD) 0 h / FIF% change in paw height (Mean ± SD) 1 h / FIF% change in paw height (Mean ± SD) 2 h / FIF% change in paw height (Mean ± SD) 3 h: n = 5
From the text: as §1

[5] = system: IL-1β; assay: serum IL-1β level by ELISA after paw edoema test; type: in vivo, rat; details: compared to the positive control group, n = 5
From the text: (§2) ELISA assays were used to assess the serum level for the inflammatory mediators TNF-α (Kit Cat. No MBS355371, MyBioSource, USA), and IL-1β (Kit Cat. No MBS8825017, MyBioSource, USA) based on the manufacture instructions.[54]

[6] = system: gastric tissue of rats; assay: acute ulcerogenic test, histopathology of gastric tissue; type: in vivo; details: fasted rat stomach, H & E stain
From the text: as §1

[7] = molecular target: T2, COX-2 (Homo sapiens, UniProt P35354); assay: COX Inhibitor screening ELISA assay kit, COX-2
T2 sequence (P35354 18-604): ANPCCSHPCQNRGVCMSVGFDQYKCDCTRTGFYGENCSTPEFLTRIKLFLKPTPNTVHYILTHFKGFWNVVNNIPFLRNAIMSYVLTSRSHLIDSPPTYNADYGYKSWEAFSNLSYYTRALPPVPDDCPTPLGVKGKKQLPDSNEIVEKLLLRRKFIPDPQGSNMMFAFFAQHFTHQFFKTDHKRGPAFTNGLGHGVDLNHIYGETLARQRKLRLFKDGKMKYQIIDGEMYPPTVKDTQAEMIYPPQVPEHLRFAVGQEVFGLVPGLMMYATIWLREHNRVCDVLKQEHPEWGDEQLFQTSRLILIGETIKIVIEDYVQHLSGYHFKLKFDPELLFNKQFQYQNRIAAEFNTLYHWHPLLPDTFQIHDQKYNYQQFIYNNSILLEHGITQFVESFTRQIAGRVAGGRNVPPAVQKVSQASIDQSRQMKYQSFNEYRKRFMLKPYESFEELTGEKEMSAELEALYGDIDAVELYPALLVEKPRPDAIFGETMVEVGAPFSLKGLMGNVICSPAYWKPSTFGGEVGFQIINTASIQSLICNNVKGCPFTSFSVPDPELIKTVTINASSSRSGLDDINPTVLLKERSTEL

[8] = system: TNF-α; assay: serum TNF-α level by ELISA after paw edoema test; type: in vivo, rat; details: compared to the positive control group, n = 5
From the text: as §2

Row | IC50 [1] | IC50 [3] | IC50 [7] | SMILES | Analgesic activity (% protection) [2] | FIF% change in paw height (Mean ± SD) 0 h [4] | FIF% change in paw height (Mean ± SD) 1 h [4] | FIF% change in paw height (Mean ± SD) 2 h [4] | Anti-inflammatory activity (% inhibition of edoema) 3 h [4] | FIF% change in paw height (Mean ± SD) 3 h [4] | Serum level of IL-1β [5] | Ulcerogenic effect on gastric tissue (histopathological examination) [6] | Serum level of TNF-α [8] | Number of writhing (20 min) (Mean ± SD) [2]
1 | 12.6 µM | 2.5 µM | 0.06 µM | CCS(=O)(=O)Oc1ccc(=O)n(-c2ccc(S(N)(=O)=O)cc2)n1 [Compound 7b, 6-Oxo-1–(4-sulfamoylphenyl)-1,6-dihydropyridazin-3-yl ethanesulfonate] | 65.0% | 0.5 ± 0.07% | 0.44 ± 0.09% | 0.58 ± 0.04% | 38.5% | 0.48 ± 0.03 % | significantly lowered | mild inflammation | significantly lowered | 
2 |  |  |  | Cc1ccc(-c2cc(C(F)(F)F)nn2-c2ccc(S(N)(=O)=O)cc2)cc1 [Celecoxib, reference compound] | 60.0% | 0.5 ± 0.07% | 0.44 ± 0.09% | 0.52 ± 0.04% | 38.5% | 0.48 ± 0.04 % |  | normal texture |  | 16 ± 0.9
3 | 8.4 µM | 3.5 µM | 0.08 µM | Cc1ccc(S(=O)(=O)Oc2ccc(=O)n(-c3ccc(S(N)(=O)=O)cc3)n2)cc1 [Compound 7d, 6-Oxo-1–(4-sulfamoylphenyl)-1,6-dihydropyridazin-3-yl 4-methylbenzenesulfonate] |  |  |  |  |  |  |  |  |  | 
4 | 9.5 µM | 5 µM | 0.14 µM | NS(=O)(=O)c1ccc(-n2nc(OCc3ccc([N+](=O)[O-])cc3)ccc2=O)cc1 [Compound 5b, 4–(3-((4-Nitrobenzyl)oxy)-6-oxopyridazin-1(6H)-yl)benzenesulfonamide] |  |  |  |  |  |  |  |  |  | 
5 | 8.4 µM | 4 µM | 0.08 µM | NS(=O)(=O)c1ccc(-n2nc(OS(=O)(=O)c3ccccc3)ccc2=O)cc1 [Compound 7c, 6-Oxo-1–(4-sulfamoylphenyl)-1,6-dihydropyridazin-3-yl benzenesulfonate] |  |  |  |  |  |  |  |  |  | 
6 | 5 µM | 7 µM | 0.11 µM | NS(=O)(=O)c1ccc(-n2nc(OCc3ccccc3)ccc2=O)cc1 [Compound 5a, 4–(3-(Benzyloxy)-6-oxopyridazin-1(6H)-yl)benzenesulfonamide] |  |  |  |  |  |  |  |  |  | 
7 |  |  |  | O=C(O)Cc1ccccc1Nc1c(Cl)cccc1Cl [Diclofenac, reference compound] | 70.0% | 0.52 ± 0.04% | 0.28 ± 0.04% | 0.32 ± 0.04% | 59% | 0.32 ± 0.04 % |  | inflammation and damage to the layers of the stomach |  | 12 ± 1.9
8 | 6.5 µM | 7 µM | 0.07 µM | N#Cc1ccc(COc2ccc(=O)n(-c3ccc(S(N)(=O)=O)cc3)n2)cc1 [Compound 5c, 4–(3-((4-Cyanobenzyl)oxy)-6-oxopyridazin-1(6H)-yl)benzenesulfonamide] |  |  |  |  |  |  |  |  |  | 
9 | 6.5 µM | 5 µM | 0.09 µM | COc1ccc(S(=O)(=O)Oc2ccc(=O)n(-c3ccc(S(N)(=O)=O)cc3)n2)cc1 [Compound 7e, 6-Oxo-1–(4-sulfamoylphenyl)-1,6-dihydropyridazin-3-yl 4-methoxybenzenesulfonate] |  |  |  |  |  |  |  |  |  | 
10 | 11.5 µM | 2 µM | 0.07 µM | NS(=O)(=O)c1ccc(-n2nc(O)ccc2=O)cc1 [Compound 3, 4–(3-Hydroxy-6-oxopyridazin-1(6H)-yl)benzenesulfonamide] |  |  |  |  |  |  |  |  |  | 
11 | 8.5 µM | 6.5 µM | 0.11 µM | NS(=O)(=O)c1ccc(-n2nc(OS(=O)(=O)c3ccc(F)cc3)ccc2=O)cc1 [Compound 7f, 6-Oxo-1–(4-sulfamoylphenyl)-1,6-dihydropyridazin-3-yl 4-fluorobenzenesulfonate] |  |  |  |  |  |  |  |  |  | 
12 | 10.4 µM | 3 µM |  | CS(=O)(=O)Oc1ccc(=O)n(-c2ccc(S(N)(=O)=O)cc2)n1 [Compound 7a, 6-Oxo-1–(4-sulfamoylphenyl)-1,6-dihydropyridazin-3-yl methanesulfonate] | 67.5% | 0.52 ± 0.04% | 0.46 ± 0.09% | 0.44 ± 0.05% | 56% | 0.34 ± 0.05 % | significantly lowered | normal texture | significantly lowered | 

Row | SMILES | IC50 [1] | IC50 [3] | IC50 [7] | Analgesic activity (% protection) [2] | FIF% change in paw height (Mean ± SD) 0 h [4] | FIF% change in paw height (Mean ± SD) 1 h [4] | FIF% change in paw height (Mean ± SD) 2 h [4] | Anti-inflammatory activity (% inhibition of edoema) 3 h [4] | FIF% change in paw height (Mean ± SD) 3 h [4] | Serum level of IL-1β [5] | Ulcerogenic effect on gastric tissue (histopathological examination) [6] | Serum level of TNF-α [8] | Number of writhing (20 min) (Mean ± SD) [2]
13 | CC(c1cc2ccccc2s1)N(O)C(N)=O (stereo not shown) [Zileuton, reference compound] |  | […] |  |  |  |  |  |  |  |  |  |  | 
